Article PMC7616174, “Development of Novel 4-Arylpyridin-2-one and 6-Arylpyrimidin-4-one Positive Allosteric Modulators of the M1 Muscarinic Acetylcholine Receptor” (ChemMedChem, 2020)
Like-named read-outs stand apart in the source and are kept apart here.

How the values were obtained:
hM1 mAChR = target: T1, hM1 mAChR (Homo sapiens, UniProt P11229); experiment: Whole-cell [3H]NMS equilibrium competition radioligand binding; conditions: [3H]NMS binding; for α (binding cooperativity with ACh): antilog
T1 construct: expressed in transfected cells
T1 sequence (P11229 1-460): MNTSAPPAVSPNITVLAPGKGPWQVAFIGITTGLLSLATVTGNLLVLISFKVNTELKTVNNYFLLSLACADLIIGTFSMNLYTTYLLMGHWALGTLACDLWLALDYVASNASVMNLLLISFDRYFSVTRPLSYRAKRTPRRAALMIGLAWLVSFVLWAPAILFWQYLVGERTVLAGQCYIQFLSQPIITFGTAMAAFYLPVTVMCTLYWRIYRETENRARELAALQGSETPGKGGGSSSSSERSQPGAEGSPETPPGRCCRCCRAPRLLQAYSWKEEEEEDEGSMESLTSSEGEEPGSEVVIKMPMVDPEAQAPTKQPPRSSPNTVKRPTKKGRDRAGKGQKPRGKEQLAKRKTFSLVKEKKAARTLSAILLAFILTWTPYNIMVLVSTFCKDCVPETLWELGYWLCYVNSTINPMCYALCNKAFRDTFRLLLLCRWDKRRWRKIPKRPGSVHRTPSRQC
Protocol: To determine the affinity (pKB) of the allosteric modulators for the allosteric site, and their binding cooperativity with ACh (log αACh) at the M1 mAChR, whole cell equilibrium competition binding studies were performed, using [^3H]NMS to label the orthosteric site.
FlpIn Chinese hamster ovary (CHO) cells stably expressing the hM1 mAChR were grown in Dulbecco’s modified Eagle’s medium (DMEM) (Invitrogen, Carlsbad, CA) supplemented with 5% foetal bovine serum (FBS) (Thermo-Trace, Melbourne, Australia) and 300 μg/mL G418 (Invitrogen, Carlsbad, CA). The cells were plated at 50,000 cells per well of 96-well white clear bottom plates (Greiner Bio-one, Kremsmünster, Austria), and were grown overnight. The following day, cells were washed twice with Phosphate Buffered Saline (PBS), and incubated with increasing concentrations of ACh (Sigma) in the absence or presence of increasing concentrations of each modulator and 0.2 nM [^3H]NMS (PerkinElmer Life Sciences) in binding buffer (20 mM HEPES, 100 mM NaCl, 10 mM MgCl2, pH 7.4) for 5 h at room temperature. Nonspecific binding was determined using atropine at the final concentration of 10 μM. The assays were terminated by rapid removal of the unbound radioligand followed by two washes with 100 μL/well ice-cold 0.9% NaCl buffer. Radioactivity was determined by addition of 100 μL/well Ultima gold (PerkinElmer Life Sciences) and counting in a MicroBeta plate reader (PerkinElmer Life Sciences).
Binding interaction studies with allosteric ligands were fitted to the following allosteric ternary complex model [Eq. (2)][15] Y=Bmax|A|/[Λ]+[KAKB/α^′[B]+KB][1+[I]/K1+[B]/KB+α[I][B]/KIKB] where Bmax is the total number of receptors, [A], [B] and [I] denote the concentrations of radioligand, allosteric modulator, and orthosteric ligand, respectively; KA, KB and KI are their respective equilibrium dissociation constants. α’ and α are the affinity cooperativity factors between the allosteric ligand and radioligand or the allosteric modulator and ACh, respectively. Values of α or α’ > 1 denote positive cooperativity, values < 1 but > 0 denote negative cooperativity, and a value of 1 indicates neutral coopera-tivity.

M1 mAChR = target: T2, M1 mAChR (Homo sapiens, UniProt P11229); experiment: β-arrestin 2 recruitment assay (BRET); format: cell-based; conditions: for αβ (functional cooperativity with ACh) / τB (intrinsic efficacy of the modulator): antilog, in parentheses; for log τB (logarithm of intrinsic efficacy of the modulator) / log αβ (logarithm of functional cooperativity between ACh and modulator): operational model; for log αβ (logarithm of functional cooperativity between ACh and modulator): pKB constrained to binding value
T2 construct: expressed in transfected cells; host or cells: parental FlpIn CHO cells (transient, PEI)
T2 sequence (P11229 1-460): T1 sequence (P11229 1-460)
Text: The compounds were then fully characterised in two functional assays (Figure 2C and D); the Gq-coupled IP1 accumulation assay (Figure S2), which was used for the initial screening of the compounds, and a β-arrestin 2 recruitment assay (Figure S3). The operational efficacy (τB) values for the modulators and their functional cooperativity estimates with ACh (logαβACh) at both signalling pathways were estimated by applying an operational model of allosterism and agonism to the data [Eq. (3)],[16] and are listed in Table 5.
Parental FlpIn CHO cells were plated at 30000 cells/well of 96-well white Culture plates (Perkin Elmer Life Sciences) and transiently transfected with 10 ng/well of M1 Renilla luciferase (Rluc)-8 and 40 ng/well of YFP-β-arrestin 2 using linear polyethyleneimine (PEI/DNA ratio 6:1) diluted in 150 mM NaCl. DNA:PEI complexes were formed by 15 min incubation at room temperature then added to the cells and incubated at 37°C for 24 h prior to use. Cells were then washed and equilibrated in Hanks’ balanced salt solution for 1 h at 37°C. Coelenterazine h at a final concentration of 5 μM was added to each well, followed by addition of increasing concentrations of ACh in the absence or presence of increasing concentrations of each modulator. Lumines-cence and fluorescence signals were measured 5 min after agonist stimulation using the LUMIstar Omega plate reader (BMG LabTech, Offenburg, Germany). […] Data were then normalized to the maximum response to ACh.
Functional interaction studies between ACh and allosteric modulators in IP1 and β-arrestin 2 recruitment assays were analysed according to a three-parameter logistic equation or the following operational model of allosterism and agonism [Eq. (3)].[16] E=Basal+(Em−Basal)([A](KB+αβ[B])+τB[B]EC50)^n/EC50n(KB+[B])^n+([A](KB+αβ[B])+τB[B]EC50)^n where Em is the maximal possible system response, and Basal is the response in the absence of agonist. [A] and [B] are concentrations of orthosteric and allosteric ligands, respectively. KB is the equilibrium dissociation constant of allosteric ligand, and EC50 is the concentration of orthosteric agonist required to achieve half maximal response. α and β represent the magnitude of the allosteric effects on orthosteric ligand affinity and efficacy, respectively; τB is the efficacy of allosteric ligand, and n is the slope factor of the transducer function that links occupancy to response.

[1] = allosteric ternary complex model, mean ± SEM, read-out: pKB (negative logarithm of the allosteric modulator equilibrium dissociation constant) (converted)

Row | SMILES | Kb (hM1 mAChR; KB, antilog of pKB, in parentheses) [µM] | α (binding cooperativity with ACh) (hM1 mAChR; in parentheses) | log αACh (logarithm of binding cooperativity between ACh and modulator) (hM1 mAChR; mean ± SEM) | Kb (hM1 mAChR; pKB (negative logarithm of the allosteric modulator equilibrium dissociation constant), allosteric ternary complex model, mean ± SEM) [µM] | αβ (functional cooperativity with ACh) (M1 mAChR) | τB (intrinsic efficacy of the modulator) (M1 mAChR) | log τB (logarithm of intrinsic efficacy of the modulator) (M1 mAChR) | log αβ (logarithm of functional cooperativity between ACh and modulator) (M1 mAChR) | Kb (hM1 mAChR; [1]) [µM]
1 | Cn1cc(-c2ccc(COc3ccccc3-c3cc(=O)n(C4CCCCC4O)cn3)cc2)cn1 (stereo not shown) [Compound 2, 3-(2-Hydroxycyclohexyl)-6-(2-((4-(1-methyl-1H-pyrazol-4-yl)benzyl)oxy)phenyl)pyrimidin-4(3H)-one] | 3 | 240 | 2.38±0.13 | 3.16 | 63 | 2 | 0.37±0.11 | 1.80±0.35 | –
2 | Cn1cc(-c2ccc(COc3ncccc3-c3ccn(C4CCCCC4O)c(=O)c3)cc2)cn1 (stereo not shown) [Compound 7f, 1’-(2-Hydroxycyclohexyl)-2-((4-(1-methyl-1H-pyrazol-4-yl)benzyl)oxy)-[3,4’-bipyridin]-2’(1’H)-one] | – | 240 | 2.38±0.39 | – | 81 | 2 | 0.23±0.08 | 1.91±0.10 | 38
3 | CN(C)C(=O)Cn1ccc(-c2ccccc2OCc2ccc(-c3cnn(C)c3)cc2)cc1=O [Compound 13c, N,N-Dimethyl-2-(4-(2-((4-(1-methyl-1H-pyrazol-4-yl)benzyl)oxy)phenyl)-2-oxopyridin-1(2H)-yl)acetamide] | – | 72 | 1.86±0.28 | – | 55 | 1 | –0.01±0.06 | 1.74±0.11 | 16.6
